Calls of active or inactive are those of the source. The rule behind the calls is not given here.
Key:
[1] = Inhibition of HIV1 His6-tagged integrase-LEDGF/p75 (unknown origin) interaction incubated for 30 mins followed by LEDGF/p75 addition measured after 4 hrs
[2] = Inhibition of HIV1 His6-tagged integrase-LEDGF/p75 (unknown origin) interaction at 100 uM incubated for 30 mins followed by LEDGF/p75 addition measured after 4 hrs relative to control
[3] = test system: Human immunodeficiency virus; assay: Antiviral activity against HIV 3B infected in human MT4 cells assessed as protection against virus-induced cytopathic effect at 100 uM by MTT assay; assay type: functional, organism-based
MT4 = assay: Cytotoxicity against human MT4 cells at 125 uM by MTT assay; assay type: cell-based; conditions: mt4, 125 µM

| SMILES | IC50 [1] [µM] | inhibition [2] | Activity [3] | Activity (MT4) |
| --- | --- | --- | --- | --- |
| Cc1ccc2[nH]c(=O)c(CC(=O)O)c(-c3ccccc3)c2c1 | 52.5 | 61% | – | – |
| Cc1c(OC(C(=O)O)c2ccccc2)ccc2c(-c3ccccc3)cc(=O)oc12 (racemic) | 37.2 | 87% | inactive | – |
| O=C(O)c1cc(N(Cc2ccccc2O)Cc2ccccc2O)ccc1O [LAVENDUSTIN B] | 94.1 | 58% | – | – |
| Cn1c(=O)c(CC(=O)O)c(O)c2ccccc21 | – | inactive | – | – |
| COc1ccc(/C=C2/SC(=S)N(C(C(=O)O)C(C)C)C2=O)cc1 (racemic) | 41.3 | – | inactive | Non-toxic |
| O=C(O)c1nn(Cc2ccc(Cl)cc2Cl)c2ccccc12 | – | 40% | – | – |
| O=C(O)Cc1c(-c2ccccc2)c2cc(Cl)ccc2[nH]c1=O | 12.2 | – | – | – |
| CCc1cc(C(=O)Cc2ccc3c(c2)OCCO3)c(O)cc1OCC(=O)O | > 100 | 50% | – | – |
| CCCC(C(=O)O)c1cnc2ccc(Cl)cc2c1-c1ccccc1 (racemic) | 1.37 | – | – | – |
| Cc1cn2c3c(=O)n(CCc4ccccc4)c(=O)n(C)c3nc2n1CC(=O)O | – | 52% | – | – |
| COc1ccc2nc(C)cc(Nc3cccc(C(=O)O)c3)c2c1 | – | 30% | – | – |
